Measured values taken from ChEMBL document CHEMBL1201862, “PubChem BioAssay data set” (2004).
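Growth conditions: 96-well plates. Treatment: test compound, 48 hours, 5 concentrations. Analysis: linear interpolation between bracketing concentrations; unreached endpoints set to highest concentration. GI50 = concentration required for 50% inhibition of growth.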 Activity calls are given as the source filed them. Rule as the data show it: active = GI50 up to about 1.1 µM and inactive = higher.

Tests used:
Experiment in all cases: inhibition of tumour cell growth, NCI panel, 48 h
[1] = system: A498
[2] = system: A549
[3] = system: ACHN
[4] = system: CAKI-1
[5] = system: CCRF-CEM
[6] = system: COLO 205
[7] = system: DLD-1
[8] = system: DMS-273
[9] = system: EKVX
[10] = system: HCC 2998
[11] = system: HCT-116
[12] = system: HCT-15
[13] = system: HL-60
[14] = system: HOP-62
[15] = system: IGROV-1
[16] = system: K562
[17] = system: KM-20L2
[18] = system: KM12
[19] = system: LXFL 529
[20] = system: M14
[21] = system: M19-MEL
[22] = system: MOLT-4
[23] = system: NCI-H226
[24] = system: NCI-H460
[25] = system: NCI-H522
[26] = system: OVCAR-4
[27] = system: OVCAR-8
[28] = system: RPMI-8226
[29] = system: RXF 393
[30] = system: RXF 631
[31] = system: SF-268
[32] = system: SF-539
[33] = system: SK-MEL-28
[34] = system: SK-MEL-2
[35] = system: SK-MEL-5
[36] = system: SK-OV-3
[37] = system: SN12C
[38] = system: SNB-19
[39] = system: SNB-75
[40] = system: SNB-78
[41] = system: SR
[42] = system: SW-620
[43] = system: TK-10
[44] = system: U-251
[45] = system: UACC-257
[46] = system: UACC-62
[47] = system: UO-31
[48] = system: XF498
[49] = system: 786-0
[50] = system: HOP-92
[51] = system: HT-29
[52] = system: LOX IMVI
[53] = system: OVCAR-3
[54] = system: SF-295
[55] = system: DMS-114
[56] = system: HOP-18
[57] = system: Malme-3M
[58] = system: NCI-H23
[59] = system: OVCAR-5

CCOc1ccc2nc(NC(=O)C(=O)C(C(=O)c3ccccc3F)C3OC(=O)c4ccccc43)sc2c1 (stereo not drawn)
GI50 [1]: 25.8 µM (inactive)
GI50 [2]: 31.6 µM (inactive)
GI50 [3]: 33.2 µM (inactive)
GI50 [4]: 31.8 µM (inactive)
GI50 [5]: 12.3 µM (inactive)
GI50 [6]: 15.6 µM (inactive)
GI50 [7]: 25.3 µM (inactive)
GI50 [8]: 19.1 µM (inactive)
GI50 [9]: 19.1 µM (inactive)
GI50 [10]: 15.9 µM (inactive)
GI50 [11]: 17.6 µM (inactive)
GI50 [12]: 14.5 µM
GI50 [13]: 16.8 µM (inactive)
GI50 [14]: 23.5 µM (inactive)
GI50 [15]: 25.6 µM (inactive)
GI50 [16]: 21.8 µM (inactive)
GI50 [17]: 27.9 µM (inactive)
GI50 [18]: 0.723 µM (active)
GI50 [19]: 19.7 µM (inactive)
GI50 [20]: 16.5 µM (inactive)
GI50 [21]: 12.1 µM (inactive)
GI50 [22]: 10.3 µM (inactive)
GI50 [23]: 5.01 µM (inactive)
GI50 [24]: 17.5 µM (inactive)
GI50 [25]: 14 µM (inactive)
GI50 [26]: 19.2 µM (inactive)
GI50 [27]: 16 µM (inactive)
GI50 [28]: 19.1 µM (inactive)
GI50 [29]: 21.5 µM (inactive)
GI50 [30]: 14.5 µM (inactive)
GI50 [31]: 16.1 µM (inactive)
GI50 [32]: 10.3 µM (inactive)
GI50 [33]: 24.4 µM (inactive)
GI50 [34]: 19.6 µM (inactive)
GI50 [35]: 15.9 µM (inactive)
GI50 [36]: 24.1 µM (inactive)
GI50 [37]: 16.4 µM (inactive)
GI50 [38]: 14.5 µM (inactive)
GI50 [39]: 15.1 µM (inactive)
GI50 [40]: 17.5 µM (inactive)
GI50 [41]: 11.7 µM (inactive)
GI50 [42]: 19.3 µM (inactive)
GI50 [43]: 23.3 µM (inactive)
GI50 [44]: 11.1 µM (inactive)
GI50 [45]: 41.3 µM (inactive)
GI50 [46]: 14.6 µM (inactive)
GI50 [47]: 18.4 µM (inactive)
GI50 [48]: 24.1 µM (inactive)

N#CCc1ccccc1/C(C#N)=C1/OC(=N)C(c2ccccc2CC#N)C1=O (stereo not drawn)
GI50 [49]: > 100 µM (inactive)
GI50 [2]: > 100 µM (inactive)
GI50 [3]: > 100 µM (inactive)
GI50 [4]: > 100 µM (inactive)
GI50 [5]: > 100 µM (inactive)
GI50 [8]: > 100 µM (inactive)
GI50 [9]: > 100 µM (inactive)
GI50 [11]: > 100 µM (inactive)
GI50 [13]: > 100 µM (inactive)
GI50 [50]: > 100 µM (inactive)
GI50 [51]: 92 µM (inactive)
GI50 [15]: > 100 µM (inactive)
GI50 [16]: > 100 µM (inactive)
GI50 [17]: > 100 µM (inactive)
GI50 [18]: > 100 µM (inactive)
GI50 [52]: > 100 µM (inactive)
GI50 [19]: 43.2 µM (inactive)
GI50 [20]: > 100 µM (inactive)
GI50 [21]: > 100 µM (inactive)
GI50 [22]: 57.8 µM (inactive)
GI50 [23]: > 100 µM (inactive)
GI50 [25]: 47.4 µM (inactive)
GI50 [53]: > 100 µM (inactive)
GI50 [28]: > 100 µM (inactive)
GI50 [30]: > 100 µM (inactive)
GI50 [31]: > 100 µM (inactive)
GI50 [54]: > 100 µM (inactive)
GI50 [32]: > 100 µM (inactive)
GI50 [33]: > 100 µM (inactive)
GI50 [35]: > 100 µM (inactive)
GI50 [36]: > 100 µM (inactive)
GI50 [39]: > 100 µM (inactive)
GI50 [41]: > 100 µM (inactive)
GI50 [42]: > 100 µM (inactive)
GI50 [43]: > 100 µM (inactive)
GI50 [45]: > 100 µM (inactive)
GI50 [46]: 42.2 µM (inactive)

COc1ccc(/C(Cl)=C(\C=N/O)c2ccc(OC)c(OC)c2)cc1OC
GI50 [49]: > 100 µM (inactive)
GI50 [1]: > 100 µM (inactive)
GI50 [2]: > 100 µM (inactive)
GI50 [3]: > 100 µM (inactive)
GI50 [4]: > 100 µM (inactive)
GI50 [5]: > 100 µM (inactive)
GI50 [6]: > 100 µM (inactive)
GI50 [7]: > 100 µM (inactive)
GI50 [55]: 30.8 µM (inactive)
GI50 [8]: > 100 µM (inactive)
GI50 [9]: > 100 µM (inactive)
GI50 [10]: > 100 µM (inactive)
GI50 [11]: > 100 µM (inactive)
GI50 [12]: 82 µM
GI50 [13]: > 100 µM (inactive)
GI50 [56]: > 100 µM (inactive)
GI50 [14]: 49.8 µM (inactive)
GI50 [50]: 63.4 µM (inactive)
GI50 [51]: > 100 µM (inactive)
GI50 [15]: > 100 µM (inactive)
GI50 [16]: > 100 µM (inactive)
GI50 [17]: > 100 µM (inactive)
GI50 [18]: > 100 µM (inactive)
GI50 [52]: > 100 µM (inactive)
GI50 [19]: > 100 µM (inactive)
GI50 [20]: 51.3 µM (inactive)
GI50 [21]: > 100 µM (inactive)
GI50 [22]: > 100 µM (inactive)
GI50 [57]: > 100 µM (inactive)
GI50 [23]: > 100 µM (inactive)
GI50 [58]: > 100 µM (inactive)
GI50 [24]: > 100 µM (inactive)
GI50 [25]: > 100 µM (inactive)
GI50 [53]: > 100 µM (inactive)
GI50 [26]: > 100 µM (inactive)
GI50 [59]: > 100 µM (inactive)
GI50 [27]: > 100 µM (inactive)
GI50 [28]: > 100 µM (inactive)
GI50 [29]: > 100 µM (inactive)
GI50 [31]: > 100 µM (inactive)
GI50 [54]: 81.7 µM (inactive)
GI50 [32]: > 100 µM (inactive)
GI50 [33]: > 100 µM (inactive)
GI50 [34]: > 100 µM (inactive)
GI50 [35]: > 100 µM (inactive)
GI50 [36]: > 100 µM (inactive)
GI50 [37]: > 100 µM (inactive)
GI50 [38]: > 100 µM (inactive)
GI50 [39]: > 100 µM (inactive)
GI50 [40]: 75.5 µM (inactive)
GI50 [41]: > 100 µM (inactive)
GI50 [42]: > 100 µM (inactive)
GI50 [43]: > 100 µM (inactive)
GI50 [44]: > 100 µM (inactive)
GI50 [45]: > 100 µM (inactive)
GI50 [46]: > 100 µM (inactive)
GI50 [47]: > 100 µM (inactive)
GI50 [48]: > 100 µM (inactive)
